Laboratory results published in article PMC9833666, “Designing and identifying β-hairpin peptide macrocycles with antibiotic potential” (Science Advances, 2023).
Entries after “also recorded” stand apart in the source; their conditions may differ. Where two headings read alike, the source gives them in different places. Bridge positions count the residues as written; N and C are the ends. Ends that are not written are not given here. Peptide text beside a SMILES is read from it.

Tests used:
[1] = system: Escherichia coli W3110; assay type: cell-based; conditions: for Ec W3110 MIC MH: E. coli W3110, MH medium; for W3110 MIC MHII: E. coli W3110, MHII medium; for Ec W3110 MIC RPMI: E. coli W3110, RPMI medium
Procedure: MICs were performed by a modifiedClinical and Laboratory Standards Institute) procedure. […] Separately, E. coli W3110 or A. baumannii AB5075 was grown overnight in 5 ml of standard MH at 37°C. Cells from these cultures were diluted to a concentration of 5 × 10^5 to 6 × 10^5 cells/ml in either standard MH, MHII, RPMI, or fetal bovine serum, and 90 μl was added to each well of the 96-well plate containing diluted peptide. Plates were wrapped twice in parafilm and incubated at 37°C for 18 to 24 hours. Wells were examined by eye against wells with no bacteria for signs of growth. MICs were reported as the minimum concentration with no observable growth. In cases where triplicate samples differed, the concentration supported by the median of the three replicates was reported.

[2] = Circular dichroism (CD) spectroscopy (secondary structure, aggregation); assay type: physicochemical; conditions: CD at 450 µg/ml to 50 µg/ml, 10 mM potassium phosphate pH 7.4
[3] = High-resolution LC-MS, percentage with intramolecular disulfide bond (%S-S); assay type: physicochemical
Procedure: Stock peptides were diluted into PBS (pH 7.4) at 0.1 mg/ml in a volume of 150 μl and placed into 2-ml autosampler vials with small volume inserts (Fisherbrand, 03-391-8). Samples were separated by a C8 LC column, and an extracted ion chromatogram was generated for the most prevalent charge state isotopes. Mass spectra were generated for each extracted LC peak using an Agilent Technologies 6546 Accurate Mass quadrupole orthogonal acceleration–time-of-flight LC-MS instrument. Analysis was performed using Agilent MassHunter Qualitative software v10. The isotope distribution for each LC peak from each sample was compared to predicted distributions created using Agilent’s Isotope Distribution Calculator. Percentages of molecules with disulfide bonds was determined by comparing the area under the curve for each LC peak containing a disulfide bond over the total area of all relevant peaks (sum area %) and reported as a mean of three technical replicates ± 1 SD.

[4] = system: Acinetobacter baumannii AB5075
[5] = system: Single-donor human red blood cells; experiment: Hemolysis assay; assay type: cell-based
Outline: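 Peptides at 300 μg/ml (SySA library) or 128 μg/ml (SySA-5 optimization library) were incubated in triplicate with washed single-donor RBCs (1 × 10^9 cells/ml) for 3 h at 37 °C. Supernatant A540 was background-normalized to PBS and expressed relative to 1% Triton X-100 (100% hemolysis).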

[6] = system: gram-positive and gram-negative pathogens, including colistin-resistant strains; experiment: MIC against pathogen panel (tables S4 and S5, not shown); assay type: cell-based
Procedure: MICs were performed by a modifiedClinical and Laboratory Standards Institute) procedure. Stock peptides were diluted to 2.56 mg/ml in 50 μl of 0.01% acetic acid containing 0.2% bovine serum albumin. Peptide was then serially diluted twofold in this solution, and 10 μl of each dilution was added to a polypropylene 96-well plate (Corning, ref. no. 3879) in triplicate. Separately, E. coli W3110 or A. baumannii AB5075 was grown overnight in 5 ml of standard MH at 37°C. Cells from these cultures were diluted to a concentration of 5 × 10^5 to 6 × 10^5 cells/ml in either standard MH, MHII, RPMI, or fetal bovine serum, and 90 μl was added to each well of the 96-well plate containing diluted peptide. Plates were wrapped twice in parafilm and incubated at 37°C for 18 to 24 hours. Wells were examined by eye against wells with no bacteria for signs of growth. MICs were reported as the minimum concentration with no observable growth. In cases where triplicate samples differed, the concentration supported by the median of the three replicates was reported.
A. baumannii 17978 Lab Stock
A. baumannii 17978 R2 Lab Stock
V. cholerae C6706 Lab Stock
P. aeruginosa ATCC 27853 ATCC
K. pneumonia ATCC 1705 ATCC
S. aureus USA100 Lab Stock
Excel spreadsheet with chemically synthesized peptide properties and biochemical data.
Excel spreadsheet with all SynCH SLAY data analysis and potency score predictions

[7] = 100% fetal bovine serum, replicate 1
[8] = 100% fetal bovine serum, replicate 2
[9] = 100% fetal bovine serum, replicate 3

Compound | Ec W3110 MIC MH [1] | W3110 MIC MHII [1] | Ec W3110 MIC RPMI [1] | W3110 MIC MH ([1]; W3110) | W3110 MIC RPMI ([1]; W3110) | %S-S [3] | AB5075 MIC FBS [4, 7] | AB5075 MIC FBS [4, 8] | AB5075 MIC FBS [4, 9] | AB5075 MIC MH ([4]; Mueller-Hinton, replicate 1) | AB5075 MIC MH ([4]; Mueller-Hinton, replicate 2) | AB5075 MIC MH ([4]; Mueller-Hinton, replicate 3) | other results
CC[C@H](C)[C@@H]1NC(=O)[C@H](CCCCN)NC(=O)[C@H](C(C)C)NC(=O)CNC(=O)[C@H](CCCNC(=N)N)NC(=O)[C@H](CCCNC(=N)N)NC(=O)[C@H](CCCNC(=N)N)NC(=O)[C@H](CC(N)=O)NC(=O)[C@H](CC(N)=O)NC(=O)[C@H](CC(C)C)NC(=O)[C@H](CCCNC(=N)N)NC(=O)[C@H](C(C)C)NC(=O)[C@H](CCCNC(=N)N)NC(=O)[C@H](C(C)C)NC(=O)[C@@H](N)CSSC[C@@H](C(=O)O)NC(=O)[C@H](C(C)C)NC(=O)[C@H](CCC(N)=O)NC(=O)[C@H](CC(C)C)NC(=O)[C@H](CO)NC1=O [SySA-49] (H-CVRVRLNNRRRGVKISLQVC-OH; disulfide 1-20; N-terminus and C-terminus assumed) | 32 µg/mL | > 128 µg/mL | 8 µg/mL | 32 µg/mL | 8 µg/mL | 91.4% | – | – | – | – | – | – | molar ellipticity of CD spectrum at different concentrations (aggregation) [2]: remained relatively constant regardless of increased concentration; also recorded: equivalent at increased and reduced concentrations
CC(C)C[C@@H]1NC(=O)[C@H](CCCNC(=N)N)NC(=O)[C@H](C(C)C)NC(=O)[C@H](CCCCN)NC(=O)[C@@H]2CSSC[C@H](NC(=O)[C@H](CCCNC(=N)N)NC(=O)[C@H](CC(C)C)NC(=O)[C@H](CCCNC(=N)N)NC(=O)[C@H](C(C)C)NC(=O)[C@H](CCCNC(=N)N)NC(=O)[C@@H](N)CSSC[C@@H](C(=O)O)NC(=O)[C@H](CCCNC(=N)N)NC1=O)C(=O)N[C@@H](CCCNC(=N)N)C(=O)N[C@@H](CCCNC(=N)N)C(=O)N[C@@H](CCCNC(=N)N)C(=O)N[C@@H](CCCNC(=N)N)C(=O)N2 [SySA-5.17] (H-CRVRLRCRRRRCKVRLRC-OH; disulfide 1-18, 7-12 (inferred); N-terminus and C-terminus assumed) | – | – | – | – | – | – | 32 µg/mL | 32 µg/mL | 32 µg/mL | 4 µg/mL | 4 µg/mL | 4 µg/mL | AB5075 MIC FBS ([4]; 100% fetal bovine serum, median of triplicate): 32 µg/mL; fold less hemolytic (toxicity) than Protegrin-1 ([5]; hemolysis at 128 µg/ml): over 10 fold; Fold Change Hemolysis ([5]; hemolysis at 128 µg/ml, fold change relative to SySA-5): 2.4; fold less hemolytic (toxicity) than Protegrin-1 ([5]; hemolysis at 128 µg/ml, listed as SySA 5.17): greater than ten-fold; spectrum of activity [6]: broad-spectrum activity
CC(C)C[C@@H]1NC(=O)[C@H](CCCNC(=N)N)NC(=O)[C@H](C(C)C)NC(=O)[C@H](CCCNC(=N)N)NC(=O)[C@H](CC(C)C)NC(=O)[C@@H](N)CSSC[C@@H](C(=O)O)NC(=O)[C@H](C(C)C)NC(=O)[C@H](CCC(N)=O)NC(=O)[C@H](CC(C)C)NC(=O)[C@H](CO)NC(=O)[C@H](C(C)C)NC(=O)[C@H](CCCCN)NC(=O)[C@H](C(C)C)NC(=O)[C@H](CCCNC(=N)N)NC(=O)CNC(=O)[C@H](CCCNC(=N)N)NC(=O)[C@H](CCCNC(=N)N)NC(=O)[C@H](CC(N)=O)NC(=O)[C@H](CC(N)=O)NC1=O [SySA-5] (H-CLRVRLNNRRGRVKVSLQVC-OH; disulfide 1-20; N-terminus and C-terminus assumed) | 16 µg/mL | 128 µg/mL | 4 µg/mL | – | 4 µg/mL | 100% | >128 µg/mL | >128 µg/mL | >128 µg/mL | 64 µg/mL | 32 µg/mL | 32 µg/mL | W3110 MIC MH ([1]; E. coli W3110, standard Mueller-Hinton broth, 37°C, 18-24 h, median of n=3): 16 µg/mL; AB5075 MIC FBS ([4]; AB5075): > 128 µg/mL; AB5075 MIC MH ([4]; AB5075): 32 µg/mL
RGGRLCYCRRRFCVCVGR (disulfide (positions not given here)) [Protegrin] | 0.5 µg/mL | 8 µg/mL | 0.5 µg/mL | – | – | 100% | – | – | – | – | – | – | hemolysis [5]: 41.84%
CC(C)C[C@@H]1NC(=O)CNC(=O)[C@H](CCCNC(=N)N)NC(=O)[C@H](CCCNC(=N)N)NC(=O)[C@H](CCCNC(=N)N)NC(=O)[C@H](CC(N)=O)NC(=O)[C@H](CC(N)=O)NC(=O)[C@H](CC(C)C)NC(=O)[C@H](CCCNC(=N)N)NC(=O)[C@H](C(C)C)NC(=O)[C@H](CCCNC(=N)N)NC(=O)[C@H](C(C)C)NC(=O)[C@@H](N)CSSC[C@@H](C(=O)O)NC(=O)[C@H](C(C)C)NC(=O)[C@H](CCC(N)=O)NC(=O)[C@H](CC(C)C)NC(=O)[C@H](CO)NC(=O)[C@H](C(C)C)NC(=O)[C@H](CCCNC(=N)N)NC1=O [SySA-29] (H-CVRVRLNNRRRGLRVSLQVC-OH; disulfide 1-20; N-terminus and C-terminus assumed) | 16 µg/mL | > 128 µg/mL | 8 µg/mL | 16 µg/mL | 8 µg/mL | 100% | – | – | – | – | – | – | –
